pIC50: −log10 of the molar value.
These compounds were tested on S. Typhimurium PhoP-regulated promoter GFP reporter, 4 h (assay: PhoP-dependent GFP reporter repression – Salmonella Typhimurium, primary screen (AID 1863)).

`CCc1ccc(NC(=O)C[n+]2cc(-c3ccc(C)cc3)n3c2CCC3)cc1` and `O=C(C[n+]1cc(-c2ccc(Cl)cc2)n2c1CCC2)Nc1nc(-c2ccccc2)cs1` are within 0.2 log units of each other in pIC50: 3.98 for the first, 4.07 for the second.

`COc1ccc(OCc2n(CC(=O)OC3CC(C)CCC3C(C)C)c3ccccc3[n+]2C)cc1` (stereo not drawn) and `CC1CCC(C(C)C)C(OC(=O)Cn2c(COc3ccccc3)[n+](C)c3ccccc32)C1` (stereo not drawn) are within 0.2 log units of each other in pIC50: 4.13 for the first, 4.14 for the second.

Going from `CCCCCCCCCCOC(=O)Cn1c(COc2ccccc2OC)[n+](C)c2ccccc21` to `CCCCCCCCCCOC(=O)Cn1c(COc2ccccc2)[n+](C)c2ccccc21`, the pIC50 rises from 4.54 to 4.75 (0.21 log units). The second is the more potent here.

`CCC(C)(C)c1ccc(OCCCC[n+]2ccccc2)c(C(C)(C)CC)c1` and `Cc1cc(C(C)(C)CC(C)(C)C)ccc1OCCOCC[N+](C)(C)Cc1ccccc1` are within 0.2 log units of each other in pIC50: 4.41 for the first, 4.50 for the second.

First: O=C(N/N=C/c1cc(Cl)ccc1O)c1ccncc1
Second: O=C(CSc1nc2ccccc2s1)N/N=C/c1cc([N+](=O)[O-])ccc1O
The pIC50 of the first is 0.46 log units higher: 4.42 for the first, 3.96 for the second.

Going from `CCn1cc(C(=O)O)c(=O)c2cc(F)c(N3CCN(C(=S)Nc4ccc(OC)cc4)CC3)cc21` to `CCn1cc(C(=O)O)c(=O)c2cc(F)c(N3CCN(S(=O)(=O)c4ccc(NC(C)=O)cc4)CC3)cc21`, the pIC50 falls from 5.22 to 3.87 (1.35 log units). The first is the more potent here.

`O=c1[nH]cc(F)c(=O)[nH]1` and `O=C1c2ccccc2C(=O)c2[nH]c(=O)[nH]c21` are within 0.2 log units of each other in pIC50: 5.01 for the first, 4.84 for the second.

`Cc1ccc(/C=C/C(=O)c2ccccc(=O)c2O)cc1C` and `Cc1ccccc1Nc1cc(C)c2c(O)cccc2n1` are within 0.2 log units of each other in pIC50: 4.37 for the first, 4.21 for the second.

`CC(=O)c1c(C)n([O-])c2ccccc2[n+]1=O` and `Cc1nc([N+](=O)[O-])c(Br)n1CC(=O)c1ccccc1` are within 0.2 log units of each other in pIC50: 3.92 for the first, 3.84 for the second.

`Clc1ccc(-c2c[n+](Cc3ccc(Cl)cc3Cl)c3n2CCCCC3)cc1` and `COc1ccc(C(=O)Cn2nc(CNc3ccc(Br)cc3)[n+]3c2CCCCC3)cc1` are within 0.2 log units of each other in pIC50: 3.90 for the first, 4.09 for the second.

Going from `O=C(c1ccccc1)c1c2c(cc3sc4ccccc4[n+]13)-c1cccc3cccc-2c13` to `Oc1cccc(Nc2c3ccccc3nc3ccccc23)c1`, the pIC50 falls from 4.10 to 3.83 (0.27 log units). The first is the more potent here.

`CCCCCOc1ccc(Br)cc1CSC(=N)N` and `CCCCCCCNC(=O)C1(CC2CC(c3cccc(Br)c3)=NO2)CCNCC1` (stereo not drawn) are within 0.2 log units of each other in pIC50: 4.24 for the first, 4.34 for the second.

`CCCCCCCSc1cc(OC)c(CCNC)cc1OC` and `CCCCCCCSc1cc(OC)c(CCN(C)C)cc1OC` are within 0.2 log units of each other in pIC50: 4.25 for the first, 4.17 for the second.

`CCOC(=O)N1CCN(C(c2cccnc2)c2ccc3cccnc3c2O)CC1` (stereo not drawn) and `CN1CCN(C(c2ccccn2)c2cc(Cl)c3cccnc3c2O)CC1` (stereo not drawn) are within 0.2 log units of each other in pIC50: 3.91 for the first, 4.02 for the second.

`CCCCCCCCCCCCCCCC[N+](C)(C)CC` and `CCCCCCCOC(=O)C[N+](C)(C)CCOC1CC2CCC1(C)C2(C)C` (stereo not drawn) are within 0.2 log units of each other in pIC50: 4.61 for the first, 4.60 for the second.

First: C[C@H]1c2cccc(O)c2C(O)=C2C(=O)[C@]3(O)C(O)=C(C(N)=O)C(=O)[C@@H](N(C)C)[C@@H]3[C@@H](O)[C@@H]21
Second: Cc1cc(SCC(=O)N/N=C/c2ccc(O)c(O)c2O)c(C)cc1Br
The pIC50 of the first is 0.82 log units higher: 5.20 for the first, 4.38 for the second. The first is the more potent here.

Going from `CC(C)(C)CC(C)(C)c1ccc(OCCOCC[N+](C)(C)Cc2ccccc2)cc1` to `Fc1ccccc1CCNCc1ccccc1`, the pIC50 falls from 4.44 to 4.23 (0.21 log units).

First: CCN1/C(=C/C(C)=C/c2sc3ccccc3[n+]2CC)Sc2ccccc21
Second: NCCc1c(-c2ccccc2)n(-c2ccccc2)c2ccccc12
The pIC50 of the first is 0.57 log units higher: 4.75 for the first, 4.18 for the second. The first is the more potent here.

First: OC(c1cc(-c2ccc(C(F)(F)F)cc2)nc(C(F)(F)F)c1)C1CCCCN1 (stereo not drawn)
Second: Oc1ccc(CN2CCCc3ccccc32)c2cccnc12
The pIC50 of the first is 0.26 log units higher: 4.42 for the first, 4.16 for the second. The first is the more potent here.

Compared with `CCOc1ccc(NC(=O)c2ccc(NC(=O)c3cn4c5c(c(N6CCN(C)CC6)c(F)cc5c3=O)OCC4C)cc2)cc1` (stereo not drawn), `C[C@H]1COc2c(N3CCN(C)CC3)c(F)cc3c(=O)c(C(=O)O)cn1c23` is higher in pIC50: 5.53 for the first, greater than 6.64 for the second. The second is the more potent here.

Going from `Oc1c(CN2CCOCC2)cc(COCc2ccccc2)c2cccnc12` to `Oc1ccc(CN2CCN(Cc3ccccc3)CC2)c2cccnc12`, the pIC50 rises from 4.01 to 4.21 (0.20 log units). The second is the more potent here.

`O=CN/N=C/c1c(O)ccc2ccccc12` and `O=Nc1ccc(O)c2ncccc12` are within 0.2 log units of each other in pIC50: 4.14 for the first, 4.25 for the second.

`CCCc1cnc(NCCNCC(O)COc2ccc(Cl)c(Cl)c2)nc1` (stereo not drawn) and `Clc1ccc(CNCc2cccs2)cc1Cl` are within 0.2 log units of each other in pIC50: 4.27 for the first, 4.13 for the second.

Compared with `Cc1ccc(Nc2nc(NCc3ccco3)c3ccccc3n2)cc1`, `COc1cccc(Nc2nc(NCC3CCCO3)c3ccccc3n2)c1` (stereo not drawn) is 0.27 log units lower in pIC50: 4.36 for the first, 4.09 for the second. The first is the more potent here.

First: COc1ccc(CNC[C@@H](CCCCN(C)Cc2ccc(OC)cc2)N2C[C@H](c3ccccc3)N(CCc3ccc(Cl)c(Cl)c3)C(=O)C2=O)cc1
Second: CCN(CC)CCOc1ccc2c(c1)C(=NNC(=O)c1ccccn1)c1cc(OCCN(CC)CC)ccc1-2
The pIC50 of the first is 0.25 log units lower: 4.12 for the first, 4.37 for the second.

First: O=C(N/N=C/c1cccc([N+](=O)[O-])c1O)c1cccs1
Second: O=C(N/N=C\c1cccc([N+](=O)[O-])c1O)C1COc2ccccc2O1 (stereo not drawn)
The pIC50 of the first is 0.63 log units higher: 4.61 for the first, 3.98 for the second. The first is the more potent here.

First: Cc1cc(C)n(-c2nc(NCCN(C)C)c3c4c(sc3n2)CCCC4)n1
Second: Cc1nc2c(=O)n(C)c(=O)nc-2n(C)n1
The pIC50 of the first is 1.95 log units lower: 3.99 for the first, 5.94 for the second. The second is the more potent here.

First: Oc1ccc(CNc2ccccc2F)c2cccnc12
Second: O=S1(=O)Nc2c(ccc3cccnc23)-c2ccccc21
The pIC50 of the first is 1.09 log units lower: 4.02 for the first, 5.11 for the second. The second is the more potent here.

First: Cn1cnc([N+](=O)[O-])c1Oc1cccc(O)c1
Second: O=[N+]([O-])c1cc(Cl)c(O)c2ncccc12
The pIC50 of the first is 1.26 log units lower: 3.95 for the first, 5.21 for the second. The second is the more potent here.

`O=C(NC(CO)C(O)c1ccc([N+](=O)[O-])cc1)C(Cl)Cl` (stereo not drawn) and `O=C(N[C@H](CO)[C@H](O)c1ccc([N+](=O)[O-])cc1)C(Cl)Cl` are within 0.2 log units of each other in pIC50: 5.01 for the first, 5.02 for the second.

Compared with `NC1=NC[C@@H](Cc2ccc(O)cc2)N1CCCCC1CCCCC1`, `CC1CCC(C(C)C)C(OC(=O)Cn2c(-c3ccc(Cl)cc3)[n+](C)c3ccccc32)C1` (stereo not drawn) is 0.43 log units lower in pIC50: 4.51 for the first, 4.08 for the second. The first is the more potent here.

Going from `O=C(Oc1c(Cl)cc(Cl)c2cccnc12)c1ccco1` to `O=[N+]([O-])c1ccc(Sc2nc3ccccc3o2)c([N+](=O)[O-])c1`, the pIC50 falls from 4.33 to 3.93 (0.40 log units).

`CC(C)NC1=C(Cl)C(=O)c2ccccc2C1=O` and `CS(=O)(=O)c1ccc([C@@H](O)[C@@H](CO)NC(=O)C(Cl)Cl)cc1` are within 0.2 log units of each other in pIC50: 4.12 for the first, 4.15 for the second.

`CC1CCCC(C)N1/N=C/c1c[nH]c2ccc(Br)cc12` (stereo not drawn) and `O=C(N/N=C/c1cc([N+](=O)[O-])ccc1O)C1CC1` are within 0.2 log units of each other in pIC50: 4.02 for the first, 4.18 for the second.

`Cc1nnc(N/N=C/c2ccccn2)[nH]c1=O` and `Oc1ccc(/C=N/Nc2nccnc2Cl)c(O)c1` are within 0.2 log units of each other in pIC50: 4.38 for the first, 4.19 for the second.

First: C=CC1=C(C(=O)O)N2C(=O)[C@@H](NC(=O)/C(=N\O)c3csc(N)n3)[C@H]2SC1 (stereo in doubt)
Second: CC(C(=O)NC1C=CS(=O)(=O)C1)N1C(=O)/C(=C/c2ccc(Cl)cc2)SC1=S (stereo not drawn)
The pIC50 of the first is 0.46 log units higher: 4.60 for the first, 4.14 for the second.

Compared with `COc1ccc(OCC(O)CNc2ccc(Br)cc2)cc1` (stereo not drawn), `Cc1nc(N)c(Cc2ccc(Cl)cc2Cl)c(N)n1` is 0.45 log units lower in pIC50: 4.43 for the first, 3.98 for the second. The first is the more potent here.

`C#CCOCCOCCOCCNc1nc(N2CCN(C(=O)CCCCCCCCCCNC(=O)[C@H](CCCN=C(N)N)n3cc(C[C@@H](C)CC)nn3)CC2)nc(N2CCN(C(=O)CCCCCCCCCCNC(=O)[C@@H]([C@H](C)CC)n3cc(CCCCCN)nn3)CC2)n1` and `C#CCOCCOCCOCCNc1nc(N2CCN(C(=O)CCCCCCCCCCNC(=O)[C@H](CCCCN)n3cc(C[C@@H](C)CC)nn3)CC2)nc(N2CCN(C(=O)CCCCCCCCCCNC(=O)[C@H](CCCN=C(N)N)n3cc(C[C@@H](C)CC)nn3)CC2)n1` are within 0.2 log units of each other in pIC50: 4.08 for the first, 4.09 for the second.

Going from `O=C1NC(=S)S/C1=C\C=C\c1ccc([N+](=O)[O-])o1` to `CCn1cc(C(=O)O)c(=O)c2cc(F)c(N3CCN(C(=S)NC(=O)c4ccc(F)c(F)c4)CC3)cc21`, the pIC50 falls from 4.65 to 4.33 (0.32 log units).

— PubChem BioAssay AID1863 (Southern Research Specialized Biocontainment Screening …, 2009)
